Data taken from US4703048A, “Novel 1-benzhydryl-4-cinnamylpiperazine derivatives, and pharmaceutical compositions comprising said compounds as active ingredient for treating a cerebrovascular disease” (Kanebo Ltd., priority 1985, dated 1987).
Structures can show the parent of a compound that is named as a salt.

Key:
[1] = tested on: vertebral blood flow; assay: Activity of increasing cerebral blood flow (vertebral blood flow), intravenous administration in anesthetized dogs; assay type: in vivo; details: 0.3 mg/kg, injected into femoral vein, anesthetized mongrel dogs
Method: The activity of increasing cerebral blood flow was measured by using the amount of vertebral blood flow as an index. Mongrel dogs of either sex (body weight 11 to 14 kg; four per group) were anesthetized with sodium pentobarbital (30 mg/kg, by intravenous injection), and the right vertebral artery was isolated from the surrounding tissues. A flow probe was attached to it and led to an electromagnetic flow meter (MFV-2100 made by Nihon Kohden Co., Ltd.). The amount of blood flow was periodically measured [see Meth and Find Exptl Clin Pharmacol, 3 (6), 397 (1981)]. Each of the test compounds was dissolved in a 2% tartaric acid solution containing 20% dimethylacetamide, and injected into the right femoral vein.
Furthermore, each of the test compounds was administered in a dose of 0.3 mg/kg, and increases (%) in vertebral blood flow were determined 1, 5, 10 and 20 minutes after the administration.

[2] = in vivo; details: mouse, oral, ddY-strain male mice, fasted 24 hours, deaths during seven days, Weil method, read-out: Acute toxicity LD50
Method: ddY-strain male mice (body weight 18 to 22 g; five per group) were caused to fast 24 hours. Then, each of the test compounds was administered orally, and acute toxicity values (LD50) were determined.
Each of the compounds was dissolved or suspended in a 2% tartaric acid solution containing 20% of dimethylacetamide, and orally administered to the animals. From the number of animals which died during seven days, the LD50 values were calculated by using the Weil method.

[3] = tested on: vertebral blood flow; assay: Activity of increasing cerebral blood flow (vertebral blood flow), intravenous administration in anesthetized dogs; assay type: in vivo; details: Canis lupus familiaris; 0.03 to 0.3 mg/kg intravenous, anesthetized mongrel dogs; calculated from the regression line; read-out: VBF-ED50 (dose which increased the cerebral blood flow by 50%)
[4] = tested on: vertebral blood flow; assay: Activity to increase cerebral blood flow (vertebral blood flow), intraduodenal administration in dogs; assay type: in vivo; details: 1 mg/kg intraduodenal, mongrel dogs
Method: The activity of compound A of the invention to increase cerebral blood flow was examined by intraduodenal administration.
Compound A was dissolved in a 2% tartaric acid solution containing 20% dimethylacetamide, and administered intraduodenally to mongrel dogs of either sex (body weight 11-18 kg, five per group) in a dose of 1 mg/kg.
At 10, 30, 60, 120, 180 and 240 minutes after the administration, the increase (%) of vertebral blood flow was measured in the same way as in Test Example 1.

[5] = 10 minutes after administration
[6] = 20 minutes after administration

Compound	Increase (%) in vertebral blood flow (mean ± standard error) ([1]; 1 minute after administration) [%]	Increase (%) in vertebral blood flow (mean ± standard error) ([1]; 5 minutes after administration) [%]	Increase (%) in vertebral blood flow (mean ± standard error) [1, 5] [%]	Increase (%) in vertebral blood flow (mean ± standard error) [1, 6] [%]	LD50 at 168 h [2] [mg/kg]	ED50 [3] [mg/kg]	Increase (%) of vertebral blood flow (mean ± standard error) [4, 5] [%]	Increase (%) of vertebral blood flow (mean ± standard error) ([4]; 30 minutes after administration) [%]	Increase (%) of vertebral blood flow (mean ± standard error) ([4]; 60 minutes after administration) [%]	Increase (%) of vertebral blood flow (mean ± standard error) ([4]; 120 minutes after administration) [%]	Increase (%) of vertebral blood flow (mean ± standard error) ([4]; 180 minutes after administration) [%]	Increase (%) of vertebral blood flow (mean ± standard error) ([4]; 240 minutes after administration) [%]
COc1ccc(C=CCN2CCN(C(c3ccccc3)c3ccccc3)CC2)c(OC)c1OC.Cl.Cl [B, 1-Benzhydryl-4-(2,3,4-trimethoxycinnamyl) piperazine dihydrochloride]	76 ± 14	58 ± 12	41 ± 7	26 ± 4	841	0.12	–	–	–	–	–	–
COc1ccc(C=CCN2CCN(C(c3ccc(F)cc3)c3ccc(F)cc3)CC2)c(OC)c1.O=C(O)/C=C/C(=O)O [C, 1-[Bis(4-fluorophenyl)methyl]-4-(2,4-dimethoxycinnamyl)piperazine fumarate]	83 ± 12	92 ± 10	71 ± 7	50 ± 7	102	0.08	–	–	–	–	–	–
COc1ccc(C=CCN2CCN(C(c3ccc(F)cc3)c3ccc(F)cc3)CC2)c(OC)c1OC.Cl.Cl [Compound A, 1-[Bis(4-fluorophenyl)methyl]-4-(2,3,4-trimethoxycinnamyl)piperazine dihydrochloride]	107 ± 17	137 ± 39	134 ± 40	120 ± 38	185	0.06	6.2 ± 1.8	51.0 ± 18.6	149.3 ± 48.0	150.9 ± 38.2	98.8 ± 24.2	55.1 ± 17.2
COc1ccc(C=CCN2CCN(C(c3ccccc3)c3ccccc3)CC2)c(OC)c1.O=C(O)/C=C/C(=O)O [D, 1-Benzhydryl-4-(2,4-dimethoxycinnamyl) piperazine fumarate]	66 ± 11	51 ± 10	27 ± 7	18 ± 6	773	0.18	–	–	–	–	–	–
Fc1ccc(C(c2ccc(F)cc2)N2CCN(CC=Cc3ccccc3)CC2)cc1 [Flunarizine dihydrochloride, reference compound]	53 ± 20	20 ± 12	11 ± 7	10 ± 6	–	> 0.3	–	–	–	–	–	–
C(=Cc1ccccc1)CN1CCN(C(c2ccccc2)c2ccccc2)CC1 [Cinnarizine, reference compound]	40 ± 10	5 ± 4	2 ± 2	2 ± 4	–	–	–	–	–	–	–	–
